Results published in patent US20120020876A1, “HEDGEHOG PATHWAY INHIBITORS” (priority 2009, published 2012).
“Also recorded” adds a separate entry of the source.

How the values were obtained:
[1] = Gd-DTPA delivery by DCE-MRI; format: in vivo, mouse; conditions: 0.1 mmol/kg Gd-DTPA
Description: Magnetic resonance imaging experiments were carried out on a Varian MRI system (Varian, Inc, Palo Alto, Calif., USA) equipped with a 9.4T horizontal bore cryo-cooled superconducting magnet of 210 mm bore and a gradient set of strength 40 G/cm, 120 μsec risetime and internal diameter 120 mm. The imaging probe used was a Varian Millipede of 40 mm internal diameter. Mice were anaesthetized with Hypnorm/Hypnovel. Anatomical images were obtained using coronal T2-weighted fast spin-echo (repetition time TR=2000 ms, effective echo time TE=25 ms, echo train length 8 echoes, 512×512 points, field of view 80×80 mm, slice thickness/gap 1.5/0.5 mm, 12-15 slices) with chemical shift-selective fat suppression and respiratory gating. All other images were matched to the slice positions and field of view of the anatomical images. […] DCE-MRI data were analyzed in software custom-written in MATLAB 7.4 (The Mathworks, Inc, Natick, Mass., USA) using the model of Tofts and Kermode to evaluate the pharmacokinetic parameters Ktrans and ve, and additionally calculating the area under the [gadolinium]-time curve over the first 60 seconds post-injection (IAUGC60), as recommended by a panel of experts for vascular-related studies in oncology.

[2] = Vascular labeling and drug diffusion: doxorubicin delivery by confocal microscopy; format: in vivo, mouse; conditions: in comparison to control tissues and transplanted tumors; i.v. with lectin
Description: To assess the functional vasculature, biotin-conjugated Lycopersicon esculentum lectin (B1175-1 mg, Vector Laboratories) was resuspended in 425 μL PBS and mixed with 75 μL of 1 mg/mL Streptavidin-AlexaFluor 633 (S21375, Molecular Probes) (in sterile PBS). Prior to use, the lectin-avidin mixture was centrifuged 14,000 k on a microfuge for 10 minutes to remove any particulate. Fifteen minutes prior to euthanasia, 100 μl (0.4 mg total) of the conjugated lectin was administered as a slow intravenous infusion over 5 minutes, and the hemodynamics monitored closely to ensure that it was tolerated. For doxorubicin experiments, five minutes prior to euthanasia mice were also infused with a 20 mg/kg doxorubicin solution (D-1515.10 mg, in sterile saline, Sigma) over one minute.
While under terminal anesthesia, mice were perfused with 4% paraformaldehyde in PBS, pH 7.4. Perfused tissues were harvested, fixed overnight in 4% paraformaldehyde in PBS, pH 7.4 and transferred to 70% ethanol. Tissues were embedded in paraffin, sectioned, rehydrated, and counterstained with DAPI. The lectin labeling experiments were reproduced independently in a second laboratory (SRH, KI).
Mice were infused with 30 ml of 4% PFA pH 7.4 using a Harvard Apparatus PhD 2000 syringe pump at a rate of […]. […] Doxorubicin fluorescence was excited with a 488 nm laser, and emission was detected in a range from 520-620 nm. […]

[3] = test system: transplanted pancreatic tumors; test: Growth of subcutaneous and orthotopic transplanted pancreatic tumors; format: in vivo; conditions: transplantation models of human or mouse origin; gemcitabine Q3Dx4, 12 days
Description: The human pancreatic cancer cell line AsPc1 was cultured according to instructions. Mouse pancreatic cancer cell lines […], […] and DT8082 were isolated from tumors arising in KPC mice using a modification of the protocol described by Schreiber et al., Gastroenterology (20004) 127:250. Briefly, a 3 mm^3 fragment of PDA was excised, washed in 10 mL of cold PBS, and then finely diced with sterile razors. Cells were incubated in 10 mL of collagenase solution at 37° C. for 30-45 minutes with mixing (1 mg/mL collagenase V in DMEM/F12). Cells were spun (100 rpm, 5 min.) and resuspended in 0.05% Trypsin/EDTA for 5 min. at 37° C., and then quenched with DMEM supplemented with 10% fetal calf serum and 96 μM CaCl2. Cells were washed 3 times with DMEM/F12 medium and plated in a 6-well Biocoat dish (Becton Dickenson) in the ductal cell medium. After 3-4 passages, cells were transferred to standard plastic tissue culture dishes and grown in DMEM+10% FCS. 1×10^6 cells suspended in 100 μL of PBS were injected subcutaneously into the flanks of nude mice (xenografts) or into immunocompetent mice (syngeneic). For syngeneic models, recipient mice were descended from mice used to generate the KPC PDA cell lines. […] Long (L) and short (S) axes of each tumor were measured with calipers (for subcutaneous tumors) or ultrasound (for orthotopic tumors). Tumor volume (V) was calculated: V=(L×S^2)/2. […]

[4] = test system: pancreatic ductal adenocarcinoma; conditions: cited from earlier work
[5] = 19F NMR of fluorinated gemcitabine metabolites in tissue; format: in vivo, mouse; conditions: six hours after gemcitabine dosage; pilot experiments
Description: Mice were treated with indicated regiments for 12 days. […] Tissues were rapidly dissected and snap frozen in liquid nitrogen. Tissue specimens were maintained at −80° C. until subjected to nucleotide extraction. Samples were homogenized in a Qiagen TissueLyser with a 5 mm ball bearing for 2×6 minutes at 25 KHz, in the presence of 4 volumes of ice-cold acetonitrile (μL acetonitrile=4×[…] of tissue). An equal volume of water was added and then the sample was spun at 14,000 rpm for 10 minutes at 4° C. Supernatant was freeze dried, resuspended in 600 μL of D2O and transferred to a 5 mm standard NMR tube (Wilmad) for ^19F NMR analysis on a Bruker 600 MHZ (14.1T) Avance NMR spectrometer using a QNP probe. Acquisition parameters included a 1D pulse sequence of ^19F observation and inverse-gated ^1H decoupling, spectral sweep width of 177 ppm (100000 Hz), 4096 scans and 1.65 sec of repetition time. Total acquisition time for each sample was about 1 hr 55 min. Trichloro-fluoro-methane was used for ^19F NMR chemical shift calibrations. A broad hump observed in the baseline of ^19F NMR spectra was removed by application of Linear-prediction (LP) back projection to the time domain data by using 2000 (number of LP) coefficients and 128 back-prediction points prior to Fourier transformation and phase correction. […]

[6] = test system: transplanted pancreatic tumors; test: Apoptosis in transplanted tumors (cleaved caspase 3 immunohistochemistry); format: in vivo, mouse; conditions: gemcitabine Q3Dx4
Description: (§1) 1×10^6 cells suspended in 100 μL of PBS were injected subcutaneously into the flanks of nude mice (xenografts) or into immunocompetent mice (syngeneic). For syngeneic models, recipient mice were descended from mice used to generate the KPC PDA cell lines. Orthotopic tumors with MiaPaca2 were generated as previously described (Niedergethmann et al., Br J Cancer 97, 1432 (Nov. 19, 2007)). Long (L) and short (S) axes of each tumor were measured with calipers (for subcutaneous tumors) or ultrasound (for orthotopic tumors). Tumor volume (V) was calculated: V=(L×S^2)/2. Tumor volumes were normalized relative to the volume at the start of drug treatment for subcutaneous tumors. […] Tumor images were acquired using a pediatric ultrasound machine. This machine was not equipped for 3D reconstruction, so the same formula V=(L×S^2)/2 was used to estimate the tumor volumes and changes. […] When appropriate, a fifth dose was given on the final day four hours prior to necropsy for pharmacological analyses.
(§2) Tissues were fixed in 10% formalin solution for 24 hours and transferred to 70% ethanol. Tissues were paraffin embedded, sectioned and rehydrated. For CD31 IHC, sections were unmasked in 10 mM EDTA, pH 8.0 in a pressure cooker. For all other antibodies, sections were unmasked in 10 mM citric acid in a pressure cooker. Endogenous peroxidases were quenched in 3% H2O2/PBS for 20 minutes. […]

KPC tumors [7] = test: Apoptosis in KPC tumors (Cleaved Caspase 3 immunohistochemistry); format: in vivo, mouse
Description: (§3) Tissues were fixed in 10% formalin solution for 24 hours and transferred to 70% ethanol. Tissues were paraffin embedded, sectioned and rehydrated. For CD31 IHC, sections were unmasked in 10 mM EDTA, pH 8.0 in a pressure cooker. For all other antibodies, sections were unmasked in 10 mM citric acid in a pressure cooker. Endogenous peroxidases were quenched in 3% H2O2/PBS for 20 minutes. Remaining steps were carried out with Vectastain ABC kits appropriate to the species of primary antibody (Vector Labs, Burlingame, Calif.) with the following modification: blocking serum was supplemented with Protein Blocking Agent (Immunotech/BeckmanCoulter, Fullerton, Calif.) diluted 1:50. Antigens were developed with DAB Peroxidase Substrate (Vector Labs). The following antibody dilutions were used: Phospho-Histone H3, 1:100 (#9701, Cell Signaling Technology); Cleaved Caspase 3, 1:100 (#9661, Cell Signaling Technology); CD31, 1:75 (SC-1506). Slides were counterstained with hematoxylin.

[8] = Determination of dFdCTP in tissues by HPLC; format: in vivo, mouse; conditions: 50 or 100 mg/kg gemcitabine i.p., 4 h
Description: Tissues were rapidly dissected and snap frozen in liquid nitrogen. Specimens were maintained at −80° C. until nucleotide extraction. Specimens were ground under liquid nitrogen with a mortar and pestle. The powdered contents were suspended in 0.4N perchloric acid and sonicated in an ice bath. Solids were removed by centrifugation, the pellet was washed with perchloric acid, and the supernatants were combined. Following neutralization with KOH and removal of KClO4 by centrifugation, a portion of the supernatant was analyzed by high-pressure liquid chromatography. The amount of gemcitabine triphosphate was normalized to the ATP level determined in the same sample analysis. Samples with inadequate concentrations of ATP were excluded from analysis.

[9] = test system: transplanted pancreatic tumors; test: Proliferation of transplanted tumors (phospho-histone H3 immunohistochemistry); format: in vivo, mouse; conditions: gemcitabine Q3Dx4
Description: as §1, §2

[10] = Gemcitabine (dFdC) in blood of normal mice by HPLC; format: in vivo, mouse
KPC pancreatic tumors = test: Monitoring of KPC pancreatic tumor volume by 3D high resolution ultrasonography; format: in vivo, mouse; conditions: gemcitabine 100 mg/kg twice weekly, Compound A 40 ug/kg/day, or both
Excerpt: For survival studies, mice were enrolled following the detection of 5-10 mm diameter tumor by ultrasound. Tumors were quantified by 3D ultrasound twice weekly until endpoint. High resolution ultrasound (US) imaging of normal and diseased mouse pancreas using the Vevo 770 System with a 35 MHz RMV scanhead (Visual Sonics, Inc.). 3D images were produced using the 3D motor arm to collect serial images at 0.25 mm intervals through the thickness of the tumor. Tumors were outlined on each 2D image and reconstructed to quantify the 3D volume using the integrated Vevo 770 software package.

KPC tumors [11] = test: Proliferation of KPC tumors (phospho-histone H3 immunohistochemistry); format: in vivo, mouse; conditions: 4 days or 8-12 days of treatment
Description: as §3

[12] = test system: pancreatic tumors in KPC mice; test: Survival study of tumor-bearing KPC mice; format: in vivo, mouse; conditions: KPC mice enrolled with 5-10 mm tumors
Description: vehicles: 20 μL/g 0.85% NaCl+8 μL/g 5% HPBCD;
Compound A: 40 mg/kg Compound A+20 μL/g 0.85% NaCl;
For survival studies, mice were enrolled following the detection of 5-10 mm diameter tumor by ultrasound. Tumors were quantified by 3D ultrasound twice weekly until endpoint.

KPC tumors [13] = test: Histology (H&E) of treated KPC tumors; format: in vivo, mouse; conditions: KPC tumors after 8-12 days of treatment

SMILES: O=C([O-])CN(CCN(CC(=O)[O-])CC(=O)O)CCN(CC(=O)[O-])CC(=O)O.[Gd+3] [Gd-DTPA, gadolinium-diethyltriaminepentaacetic acid]
- Gd-DTPA enhancement within KPC tumors [1]: little or no enhancement within the tumor body

SMILES: COc1cccc2c1C(=O)c1c(O)c3c(c(O)c1C2=O)C[C@@](O)(C(=O)CO)C[C@@H]3O[C@H]1C[C@H](N)[C@H](O)[C@H](C)O1 [doxorubicin]
- doxorubicin delivery to KPC pancreatic tumors [2]: marked decrease in doxorubicin delivery

SMILES: Nc1ccn([C@@H]2O[C@H](CO)[C@@H](O)C2(F)F)c(=O)n1 [gemcitabine, 2′,2′-difluorodeoxycytidine]
- tumor growth of transplanted tumors [3]: substantial inhibition of tumor growth
- extension of survival ([4]; pancreatic ductal adenocarcinoma, standard-of-care therapy): a few weeks
- patients with objective radiographic response at the primary tumor site ([4]; patients, Tempero et al. 2003): 5-10%
- 19F signals in PDA and control tissues [5]: absent
- apoptosis in transplanted tumors [6]: no significant changes in apoptosis
- apoptosis in KPC tumors (KPC tumors [7]): unchanged in most KPC tumors
- dFdCTP in KPC tumors [8]: absent
- dFdCTP in transplanted tumor tissues and control tissues [8]: present
- proliferative rate of transplanted tumors [9]: significantly lower proliferative rates
- half-life of gemcitabine in circulating blood [10]: short half-life
- objective (ultrasonographic) response, responding mice/treated mice (KPC pancreatic tumors): 2/10
- proliferation of KPC tumors (KPC tumors [11]): significantly diminished; also recorded: decreased
- effect on survival of KPC mice [12]: Neither gemcitabine nor Compound A treatment had an effect on the survival
- tumor stroma / histological pattern (KPC tumors [13]): dense stromal matrix
